In patent US6506772B1, “Substituted [1,2,4]triazolo[1,5a]pyridine derivatives with activity as adenosine receptor ligands” (Hoffmann-La Roche Inc., priority 2000, dated 2003):
pKi: −log10 of the molar value.

The compounds below were run against T1, human adenosine A2A receptor (Homo sapiens, UniProt P29274) (assay: Human adenosine A2A receptor [3H]-SCH-58261 binding assay). Conditions: affinity to human adenosine A2A receptor; read-out: Ki HA2A.
T1 construct: expressed in transfected cells; host or cells: CHO cells, Semliki Forest virus expression system; membrane preparation
T1 sequence (P29274 whole entry): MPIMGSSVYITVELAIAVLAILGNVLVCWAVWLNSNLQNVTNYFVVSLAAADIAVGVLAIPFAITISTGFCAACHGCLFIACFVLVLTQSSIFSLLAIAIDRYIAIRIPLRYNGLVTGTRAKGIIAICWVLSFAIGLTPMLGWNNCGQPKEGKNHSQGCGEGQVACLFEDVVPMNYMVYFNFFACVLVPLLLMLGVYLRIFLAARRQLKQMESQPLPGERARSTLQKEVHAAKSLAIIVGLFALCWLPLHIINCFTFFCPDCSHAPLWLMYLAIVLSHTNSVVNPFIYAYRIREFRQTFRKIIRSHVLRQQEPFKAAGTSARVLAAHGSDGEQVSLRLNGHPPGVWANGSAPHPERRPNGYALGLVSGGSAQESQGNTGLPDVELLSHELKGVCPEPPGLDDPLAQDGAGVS
Experimental: Human Adenosine A2A Receptor
The human adenosine A2A receptor was recombinantly expressed in chinese hamster ovary (CHO) cells using the semliki forest virus expression system. Cells were harvested, washed twice by centrifugation, homogenized and again washed by centrifugation. The final washed membrane pellet was suspended in a Tris (50 mM) buffer containing 120 mM NaCl, 5 mM KCl, 2 mM CaCl2 and 10 MM MgCl2 (pH 7.4) (buffer A). […] Compounds were tested at 10 concentrations from 10 μM-0.3 nM. All assays were conducted in duplicate and repeated at least two times. Assay plates were incubated for 1 hour at room temperature before centrifugation and then bound ligand determined using a Packard Topcount scintillation counter. IC50 values were calculated using a non-linear curve fitting program and Ki values calculated using the Cheng-Prussoff equation.

Row | SMILES | pKi
1 | Cc1ccsc1-c1nc2cc(C(=O)NC3CCCCC3)cc(N)n2n1 [Example 37, 5-Amino-2-(3-methyl-thiophen-2-yl)-[1,2,4]triazolo[1,5-a]pyridine-7-carboxylic acid cyclohexylamide] | 6.43
2 | COc1ccc(CNC(=O)c2cc(N)n3nc(-c4ccccn4)nc3c2)cc1 [Example 42, 5-Amino-2-pyridin-2-yl-[1,2,4]triazolo[1,5-a]pyridine-7-carboxylic acid 4-methoxy-benzylamide] | 6.47
3 | COc1ccc(-c2nc3cc(C(=O)NC(C)c4ccccc4)cc(N)n3n2)s1 (centres unmarked) [Example 60, 5-Amino-2-(5-methoxy-thiophen-2-yl)-[1,2,4]triazolo[1,5-a]pyridine-7-carboxylic acid (1-phenyl-ethyl)-amide] | 6.41
4 | COc1ccc(-c2nc3cc(C(=O)NCc4cccnc4)cc(N)n3n2)s1 [Example 61, 5-Amino-2-(5-methoxy-thiophen-2-yl)-[1,2,4]triazolo[1,5-a]pyridine-7-carboxylic acid (pyridin-3-ylmethyl)-amide] | 6.48
5 | COc1ccc(-c2nc3cc(C(=O)N4CCCC4)cc(N)n3n2)s1 [Example 69, [5-Amino-2-(5-methoxy-thiophen-2-yl)-[1,2,4]triazolo[1,5-a]pyridin-7-yl]-pyrrolidin-1-yl-methanone] | 6.47
6 | CCN(Cc1ccccc1F)C(=O)c1cc(N)n2nc(-c3ccc(OC)s3)nc2c1 [Example 76, 5-Amino-2-(5-methoxy-thiophen-2-yl)-[1,2,4]triazolo[1,5-a]pyridine-7-carboxylic acid ethyl-(2-fluoro-benzyl)-amide] | 7.55
7 | CCN(Cc1ccccc1)C(=O)c1cc(N)n2nc(-c3ccc[nH]3)nc2c1 [Example 94, 5-Amino-2-(1H-pyrrol-2-yl)-[1,2,4]triazolo[1,5-a]pyridine-7-carboxylic acid benzyl-ethyl-amide] | 6.40
8 | COc1ccc(CNC(=O)c2cc(N)n3nc(-c4cccs4)nc3c2)cc1 [Example 229, 5-Amino-2-thiophen-2-yl-[1,2,4]triazolo[1,5-a]pyridine-7-carboxylic acid 4-methoxy-benzylamide] | 6.42
9 | Nc1cc(C(=O)NCc2ccc(Cl)cc2)cc2nc(-c3ccoc3)nn12 [Example 230, 5-Amino-2-furan-3-yl-[1,2,4]triazolo[1,5-a]pyridine-7-carboxylic acid 4-chloro-benzylamide] | 6.48
10 | COc1ccc(CNC(=O)c2cc(N)n3nc(-c4ccc(Br)o4)nc3c2)cc1 [Example 231, 5-Amino-2-(5-bromo-furan-2-yl)-[1,2,4]triazolo[1,5-a]pyridine-7-carboxylic acid 4-methoxy-benzylamide] | 6.44
11 | COCCN(CCOC)C(=O)c1cc(N)n2nc(-c3nccs3)nc2c1 [Example 321, 5-Amino-2-thiazol-2-yl-[1,2,4]triazolo[1,5-a]pyridine-7-carboxylic acid bis-(2-methoxy-ethyl)-amide] | 6.50
12 | CN(CCc1ccccn1)C(=O)c1cc(N)n2nc(-c3nccs3)nc2c1 [Example 324, 5-Amino-2-thiazol-2-yl-[1,2,4]triazolo[1,5-a]pyridine-7-carboxylic acid methyl-(2-pyridin-2-yl-ethyl)-amide] | 6.53
13 | Nc1cc(C(=O)N2CC=C(c3ccccc3)CC2)cc2nc(-c3nccs3)nn12 [Example 326, (5-Amino-2-thiazol-2-yl-[1,2,4]triazolo[1,5-a]pyridin-7-yl)-(4-phenyl-3,6-dihydro-2H-pyridin-1-yl)-methanone] | 6.43

The next lines start with the values.

Row | pKi | SMILES
14 | 6.49 | COc1ccc(-c2nc3cc(C(=O)N(CCN(C)C)Cc4ccccc4)cc(N)n3n2)s1 [Example 53, 5-Amino-2-(5-methoxy-thiophen-2-yl)-[1,2,4]triazolo[1,5-a]pyridine-7-carboxylic acid benzyl-(2-dimethylamino-ethyl)-amide]
15 | 6.50 | COc1ccc(-c2nc3cc(C(=O)NCCc4ccccc4OC)cc(N)n3n2)s1 [Example 54, 5-Amino-2-(5-methoxy-thiophen-2-yl)-[1,2,4]triazolo[1,5-a]pyridine-7-carboxylic acid [2-(2-methoxy-phenyl)-ethyl]-amide]
16 | 6.47 | COc1ccc(-c2nc3cc(C(=O)NCCc4ccccc4F)cc(N)n3n2)s1 [Example 57, 5-Amino-2-(5-methoxy-thiophen-2-yl)-[1,2,4]triazolo[1,5-a]pyridine-7-carboxylic acid [2-(2-fluoro-phenyl)-ethyl]-amide]
17 | 6.58 | COc1ccc(-c2nc3cc(C(=O)NC4CC4)cc(N)n3n2)s1 [Example 72, 5-Amino-2-(5-methoxy-thiophen-2-yl)-[1,2,4]triazolo[1,5-a]pyridine-7-carboxylic acid cyclopropylamide]
18 | 6.44 | COc1ccc(-c2nc3cc(C(=O)NC4CCCCCC4)cc(N)n3n2)s1 [Example 74, 5-Amino-2-(5-methoxy-thiophen-2-yl)-[1,2,4]triazolo[1,5-a]pyridine-7-carboxylic acid cycloheptylamide]
19 | 6.53 | Nc1cc(C(=O)NCc2ccccc2Br)cc2nc(-c3ccc[nH]3)nn12 [Example 92, 5-Amino-2-(1H-pyrrol-2-yl)-[1,2,4]triazolo[1,5-a]pyridine-7-carboxylic acid 2-bromo-benzylamide]
20 | 6.41 | Nc1cc(C(=O)NC2CCC2)cc2nc(-c3ccc[nH]3)nn12 [Example 95, 5-Amino-2-(1H-pyrrol-2-yl)-[1,2,4]triazolo[1,5-a]pyridine-7-carboxylic acid cyclobutylamide]
21 | 6.48 | Nc1cc(C(=O)N2CCSCC2)cc2nc(-c3nccs3)nn12 [Example 318, (5-Amino-2-thiazol-2-yl-[1,2,4]triazolo[1,5-a]pyridin-7-yl)-thiomorpholin-4-yl-methanone]

Same assay, conditions: ratio KiHA1 divided by KiHA2A

Row | selectivity (A1/A2a) | SMILES
22 | 61.4 | CN(C)C(=O)CN(C)C(=O)c1cc(N)n2nc(-c3nccs3)nc2c1 [Example 399, 5-Amino-2-thiazol-2-yl-[1,2,4]triazolo[1,5-a]pyridine-7-carboxylic acid dimethylcarbamoylmethyl-methyl-amide]
23 | 21.2 | CN(C)C(=O)[C@@H]1CCCN1C(=O)c1cc(N)n2nc(-c3nccs3)nc2c1 [Example 402, 1-(5-Amino-2-thiazol-2-yl-[1,2,4]triazolo[1,5-a]pyridine-7-carbonyl)-pyrrolidine-2-carboxylic acid dimethylamide]
24 | 15.6 | CC(=O)N(C)C1CCN(C(=O)c2cc(N)n3nc(-c4nccs4)nc3c2)C1 (centres unmarked) [Example 403, N-[1-(5-Amino-2-thiazol-2-yl-[1,2,4]triazolo[1,5-a]pyridine-7-carbonyl)-pyrrolidin-3-yl]-N-methyl-acetamide]
25 | 53.1 | CN(C)C(=O)CN(C)C(=O)c1cc(N)n2nc(-c3ccccn3)nc2c1 [Example 428, 5-Amino-2-pyridin-2-yl-[1,2,4]triazolo[1,5-a]pyridine-7-carboxylic acid dimethylcarbamoylmethyl-methyl-amide]
26 | 52.6 | CCN(CC)C(=O)C1CCCN(C(=O)c2cc(N)n3nc(-c4ccccn4)nc3c2)C1 (centres unmarked) [Example 434, 1-(5-Amino-2-pyridin-2-yl-[1,2,4]triazolo[1,5-a]pyridine-7-carbonyl)-piperidine-3-carboxylic acid diethylamide]

Same assay, conditions: recombinant human A2A in CHO cell membranes, [3H]-SCH-58261, Cheng-Prussoff; read-out: Ki hA2A

Row | pKi | SMILES
27 | 7.00 | CN(C)C(=O)CN(C)C(=O)c1cc(N)n2nc(-c3nccs3)nc2c1 [Example 399, 5-Amino-2-thiazol-2-yl-[1,2,4]triazolo[1,5-a]pyridine-7-carboxylic acid dimethylcarbamoylmethyl-methyl-amide]
28 | 6.53 | CN(C)C(=O)[C@@H]1CCCN1C(=O)c1cc(N)n2nc(-c3nccs3)nc2c1 [Example 402, 1-(5-Amino-2-thiazol-2-yl-[1,2,4]triazolo[1,5-a]pyridine-7-carbonyl)-pyrrolidine-2-carboxylic acid dimethylamide]
29 | 6.40 | CC(=O)N(C)C1CCN(C(=O)c2cc(N)n3nc(-c4nccs4)nc3c2)C1 (centres unmarked) [Example 403, N-[1-(5-Amino-2-thiazol-2-yl-[1,2,4]triazolo[1,5-a]pyridine-7-carbonyl)-pyrrolidin-3-yl]-N-methyl-acetamide]
30 | 6.93 | CN(C)C(=O)CN(C)C(=O)c1cc(N)n2nc(-c3ccccn3)nc2c1 [Example 428, 5-Amino-2-pyridin-2-yl-[1,2,4]triazolo[1,5-a]pyridine-7-carboxylic acid dimethylcarbamoylmethyl-methyl-amide]
31 | 6.93 | CCN(CC)C(=O)C1CCCN(C(=O)c2cc(N)n3nc(-c4ccccn4)nc3c2)C1 (centres unmarked) [Example 434, 1-(5-Amino-2-pyridin-2-yl-[1,2,4]triazolo[1,5-a]pyridine-7-carbonyl)-piperidine-3-carboxylic acid diethylamide]

These compounds were tested against T2, HA1 adenosine receptor (Homo sapiens, UniProt P30542) (assay: Human adenosine A1 receptor affinity (Ki hA1)). Conditions: affinity to human adenosine A1 receptor.
T2 sequence (P30542 1-326): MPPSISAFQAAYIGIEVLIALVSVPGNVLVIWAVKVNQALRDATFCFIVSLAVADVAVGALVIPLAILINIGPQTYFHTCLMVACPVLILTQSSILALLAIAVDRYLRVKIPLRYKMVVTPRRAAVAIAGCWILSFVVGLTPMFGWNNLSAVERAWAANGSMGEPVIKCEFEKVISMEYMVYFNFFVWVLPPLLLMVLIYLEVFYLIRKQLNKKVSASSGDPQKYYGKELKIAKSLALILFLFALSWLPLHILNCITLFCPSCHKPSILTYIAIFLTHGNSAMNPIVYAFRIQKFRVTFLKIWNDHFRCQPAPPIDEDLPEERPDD
Type: binding

Row | pKi | SMILES
32 | 6.63 | CCN(CC)C(=O)c1cc(N)n2nc(-c3ccc(Br)o3)nc2c1 [Example 21, 5-Amino-2-(5-bromo-furan-2-yl)-[1,2,4]triazolo[1,5-a]pyridine-7-carboxylic acid diethylamide]
33 | 6.26 | Nc1cc(C(=O)N2CCCC2)cc2nc(-c3ccc(Br)o3)nn12 [Example 22, [5-Amino-2-(5-bromo-furan-2-yl)-[1,2,4]triazolo[1,5-a]pyridin-7-yl]-pyrrolidin-1-yl-methanone]
34 | 6.56 | Nc1cc(C(=O)N2CCCCC2)cc2nc(-c3ccc(Br)o3)nn12 [Example 23, [5-Amino-2-(5-bromo-furan-2-yl)-[1,2,4]triazolo[1,5-a]pyridin-7-yl]-piperidin-1-yl-methanone]
35 | 6.03 | Cc1ccc(-c2nc3cc(C(=O)N4CCCC4)cc(N)n3n2)o1 [Example 27, [5-Amino-2-(5-methyl-furan-2-yl)-[1,2,4]triazolo[1,5-a]pyridin-7-yl]-pyrrolidin-1-yl-methanone]
36 | 6.16 | Cc1ccc(-c2nc3cc(C(=O)N4CCCCC4)cc(N)n3n2)o1 [Example 28, [5-Amino-2-(5-methyl-furan-2-yl)-[1,2,4]triazolo[1,5-a]pyridin-7-yl]-piperidin-1-yl-methanone]
37 | 5.76 | Nc1cc(C(=O)N2CCCC2)cc2nc(-c3ccco3)nn12 [Example 106, (5-Amino-2-furan-2-yl-[1,2,4]triazolo[1,5-a]pyridin-7-yl)-pyrrolidin-1-yl-methanone]
38 | 5.57 | Nc1cc(C(=O)N2CCCCC2)cc2nc(-c3ccco3)nn12 [Example 107, (5-Amino-2-furan-2-yl-[1,2,4]triazolo[1,5-a]pyridin-7-yl)-piperidin-1-yl-methanone]
